Data published in article PMC7765401, “Antiproliferative and Antiangiogenic Properties of New VEGFR-2-targeting 2-thioxobenzo[g]quinazoline Derivatives (In Vitro)” (Molecules, 2020).
Several values for one entry are separate records, joined by “and”; a condition that tells them apart may be missing. Equal entries are not always repeated. Where two headings read alike, the source gives them in different places.

What was measured:
[1] = test system: HepG2 human cancer-cell line; assay: MTT antiproliferative assay, HepG2; assay type: cell-based
Method: (§1) Selected compounds were evaluated in vitro for their antiproliferative activities against HepG2 and MCF-7 human cancer-cell lines using MTT assays. Cell viabilities and IC50 values were obtained and compared with those of the control, doxorubicin (Table 1).
(§2) The antiproliferative activity of the test compounds against HepG2, and MCF-7 human cancer-cell lines were evaluated by MTT assay. The detailed methodology procedure was reported. […]

[2] = test system: MCF-7 human cancer-cell line; assay: MTT antiproliferative assay, MCF-7; assay type: cell-based
Method: as §1, §2

MCF-7 cells [3] = assay: Cell-cycle analysis by flow cytometry (PI), MCF-7; assay type: cell-based, human; conditions: MCF-7, 48 h at the IC50 of the compound
Method: (§3) To investigate whether the tested compounds could arrest HepG2 and MCF-7 mitotic cell division, cell distributions at cell-cycle phases were analyzed by flow cytometry following their treatment with the vehicle or the indicated compound at its IC50 concentration. Cells and samples were prepared as previously reported, and a PI (ab139418) Flow Cytometry Kit (Abcam, Cambridge, UK) was used in accordance with the manufacturer’s protocol. In brief, both HepG2 and MCF-7 cells were separate, plated into six-well plates at a density of 0.6 × 10^6 cells/well in DMEM growth medium supplemented with 10% FBS. Cells were incubated for 24 h at 37 °C and 5% CO2 prior to exposure to either the vehicle (DMSO) as the control or 13, 14, or 15, at their IC50 concentrations. […] All cells were incubated for 48 h, washed with cold PBS after being harvested to single-cell suspensions by trypsinization, and fixed with 70% ethanol. The fixed cells were rehydrated in PBS prior to being lysed in a prepared solution of PI, Triton X-100, and RNase. Finally, the cells were kept at 37 °C for 15 min and analyzed using a FACS Caliber flow cytometer (BD Biosciences and Co., Franklin Lakes, NJ, USA).

MCF-7 cells [4] = assay: Apoptosis by annexin-V FITC/PI double staining, MCF-7; assay type: cell-based, human; conditions: MCF-7, 48 h at the IC50 of the compound
Method: (§4) Apoptosis was detected for both HepG2 and MCF-7cells using the same preparation and sample treatment conditions as those used for cell-cycle analysis. The manufacturer’s instructions for the annexin-V FITC apoptosis detection kit (K101, Biovision, Milpitas, CA, USA) were followed. In brief, treated cells were detached after 48 h by trypsinization, washed twice with cold PBS, and stained with 5 μL of annexin-V fluorescein isothiocyanate (annexin-V FITC) and 5 μL of PI in the binding buffer for 15 min at 37 °C. Finally, the processed cells were analyzed using a FACS Caliber flow cytometer (BD Biosciences and Co., Franklin Lakes, NJ, USA).

VEGFR-2 (KDR) = target: T1, VEGFR-2 (KDR) (Homo sapiens, UniProt P35968); assay: In vitro inhibition of VEGFR-2 (KDR) kinase assay kit; assay type: biochemical; conditions: for Fold Relative to Sorafenib: VEGFR-2 IC50 relative to sorafenib; for IC50: luminescence kinase kit, 0.0–10.0 μM range, read-out: IC50 nM, VEGFR-2 enzyme
T1 construct: purchased Cat. #40325
Method: At the indicated end of the experiment, the luminescence was measured by a Tecan spark microplate reader.

HepG2 cells [5] = assay: Cell-cycle analysis by flow cytometry (PI), HepG2; assay type: cell-based, human; conditions: HepG2, 48 h at the IC50 of the compound
Method: as §3

HepG2 cells [6] = assay: Apoptosis by annexin-V FITC/PI double staining, HepG2; assay type: cell-based, human; conditions: HepG2, 48 h at the IC50 of the compound
Method: as §4

[7] = MTT, 48 h of exposure, read-out: IC50 (μM) ± SD HepG2
[8] = Table S5, read-out: pIC50(exp) HepG2 (converted)
[9] = MCF7, MTT, 48 h of exposure, read-out: IC50 (μM) ± SD MCF-7
[10] = MCF7, Table S5, read-out: pIC50 (exp) MCF7 (converted)

T1 sequence (P35968 20-1356): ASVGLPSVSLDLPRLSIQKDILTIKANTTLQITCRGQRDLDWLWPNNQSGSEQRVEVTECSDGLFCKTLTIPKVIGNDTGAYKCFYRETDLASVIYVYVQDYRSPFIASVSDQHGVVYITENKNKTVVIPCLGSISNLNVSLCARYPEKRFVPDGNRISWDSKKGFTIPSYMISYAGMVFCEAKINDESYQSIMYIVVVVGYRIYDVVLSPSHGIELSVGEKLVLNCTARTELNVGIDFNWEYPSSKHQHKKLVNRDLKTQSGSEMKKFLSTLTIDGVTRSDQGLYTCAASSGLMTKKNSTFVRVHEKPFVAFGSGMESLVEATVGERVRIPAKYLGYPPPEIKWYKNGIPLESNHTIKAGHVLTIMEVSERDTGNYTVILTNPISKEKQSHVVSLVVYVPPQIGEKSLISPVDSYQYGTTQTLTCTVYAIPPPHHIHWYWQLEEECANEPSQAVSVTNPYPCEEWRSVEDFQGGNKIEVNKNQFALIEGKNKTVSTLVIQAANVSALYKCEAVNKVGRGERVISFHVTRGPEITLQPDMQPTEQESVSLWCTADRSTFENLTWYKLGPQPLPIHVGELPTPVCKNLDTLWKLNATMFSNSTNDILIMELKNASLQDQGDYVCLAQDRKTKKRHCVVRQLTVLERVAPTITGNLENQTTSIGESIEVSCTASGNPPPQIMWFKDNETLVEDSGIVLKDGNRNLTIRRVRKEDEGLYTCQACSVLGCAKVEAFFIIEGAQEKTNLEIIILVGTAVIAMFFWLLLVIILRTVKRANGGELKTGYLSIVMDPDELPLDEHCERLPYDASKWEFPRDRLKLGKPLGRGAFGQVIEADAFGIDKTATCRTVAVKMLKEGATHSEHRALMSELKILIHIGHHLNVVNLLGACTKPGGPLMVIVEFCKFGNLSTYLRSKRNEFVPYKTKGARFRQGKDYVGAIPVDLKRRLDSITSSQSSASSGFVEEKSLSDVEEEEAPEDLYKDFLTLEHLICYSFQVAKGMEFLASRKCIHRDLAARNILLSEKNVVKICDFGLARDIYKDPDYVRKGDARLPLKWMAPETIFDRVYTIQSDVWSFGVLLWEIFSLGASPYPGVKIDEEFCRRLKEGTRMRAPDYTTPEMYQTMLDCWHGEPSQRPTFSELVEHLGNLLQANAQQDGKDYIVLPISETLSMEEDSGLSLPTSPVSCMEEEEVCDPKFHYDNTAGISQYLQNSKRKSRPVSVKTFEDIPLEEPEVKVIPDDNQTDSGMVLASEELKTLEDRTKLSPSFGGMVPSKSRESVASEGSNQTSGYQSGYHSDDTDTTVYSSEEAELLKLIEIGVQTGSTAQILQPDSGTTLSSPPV

| SMILES | IC50 [1, 7] [µM] | IC50 [1, 8] [µM] | IC50 [2, 9] [µM] | IC50 [2, 10] [µM] | melting point [°C] | also measured |
| --- | --- | --- | --- | --- | --- | --- |
| Cn1c(=S)[nH]c2cc3ccccc3cc2c1=O [Compound 1, 3-Methyl-2-thioxo-2,3-dihydrobenzo[g]quinazolin-4(1H)-one] | 40.4 ± 4.1 | 40.4 | 10.7 ± 1.1 | 10.7 | – | – |
| CCn1c(=S)[nH]c2cc3ccccc3cc2c1=O [Compound 2, 3-Ethyl-2-thioxo-2,3-dihydrobenzo[g]quinazolin-4(1H)-one] | 36.1 ± 3.6 | 36.1 | 10.5 ± 0.5 | 10.5 | – | – |
| CCSc1nc2cc3ccccc3cc2c(=O)n1C [Compound 3, 2-(Ethylthio)-3-methylbenzo[g]quinazolin-4(3H)-one] | 29.9 ± 2.5 | 29.9 | 10.1 ± 0.7 | 10.1 | 115 to 117 | – |
| Cn1c(SCc2ccccc2)nc2cc3ccccc3cc2c1=O [Compound 4, 2-(Benzylthio)-3-methylbenzo[g]quinazolin-4(3H)-one] | 34.8 ± 3.1 | 34.8 | 10.2 ± 1.1 | 10.2 | 150 to 152 | – |
| Cc1cccc(CSc2nc3cc4ccccc4cc3c(=O)n2C)c1 [Compound 5, 3-Methyl-2-((3-methylbenzyl)thio)benzo[g]quinazolin-4(3H)-one] | 31.3 ± 3.1 | 31.3 | 10.6 ± 0.7 | 10.6 | 155 to 157 | – |
| Cn1c(SCc2ccc(Cl)cc2)nc2cc3ccccc3cc2c1=O [Compound 6, 2-((4-Chlorobenzyl)thio)-3-methylbenzo[g]quinazolin-4(3H)-one] | 28.8 ± 2.6 | 28.8 | 10.7 ± 1.1 | 10.7 | 190 to 192 | – |
| Cn1c(SCc2ccc(C#N)cc2)nc2cc3ccccc3cc2c1=O [Compound 7, 4-(((3-Methyl-4-oxo-3,4-dihydrobenzo[g]quinazolin-2-yl)thio)methyl)benzonitrile] | 36 ± 3.1 | 36 | 9.8 ± 1.2 | 9.8 | 201 to 203 | – |
| COc1cccc(CSc2nc3cc4ccccc4cc3c(=O)n2C)c1 [Compound 8, 2-((3-Methoxybenzyl)thio)-3-methylbenzo[g]quinazolin-4(3H)-one] | 31.3 ± 3.1 | 31.3 | 10.9 ± 0.9 | 10.9 | – | – |
| CCSc1nc2cc3ccccc3cc2c(=O)n1CC [Compound 9, 3-Ethyl-2-(ethylthio)benzo[g]quinazolin-4(3H)-one] | 31.7 ± 3.1 | 31.7 | 10.2 ± 0.6 | 10.2 | 107 to 109 | – |
| CCn1c(SCc2ccccc2)nc2cc3ccccc3cc2c1=O [Compound 10, 2-(Benzylthio)-3-ethylbenzo[g]quinazolin-4(3H)-one] | 36.2 ± 3.5 | 36.2 | 8.8 ± 0.5 | 8.79 | 132 to 134 | Cell Cycle Distribution %G0/G1 (MCF-7 cells [3]): 39.28%; Cell Cycle Distribution %G2/M (MCF-7 cells [3]): 34.6% and 34.55%; Cell Cycle Distribution %S (MCF-7 cells [3]): 26.17%; Apoptosis Early (MCF-7 cells [4]): 4.64%; Apoptosis Late (MCF-7 cells [4]): 17.03%; Apoptosis Total (MCF-7 cells [4]): 21.67%; Necrosis (MCF-7 cells [4]): 9.61%; Fold Relative to Sorafenib (VEGFR-2 (KDR)): 4.5 fold; IC50 (VEGFR-2 (KDR)): 134 ± 8.2 nM |
| CCn1c(SCc2cccc(C#N)c2)nc2cc3ccccc3cc2c1=O [Compound 11, 3-(((3-Ethyl-4-oxo-3,4-dihydrobenzo[g]quinazolin-2-yl)thio)methyl)benzonitrile] | 34.2 ± 2.9 | 34.2 | 10.6 ± 1.1 | 10.6 | 140 to 142 | – |
| CCn1c(SCc2cccc(C)c2)nc2cc3ccccc3cc2c1=O [Compound 12, 3-Ethyl-2-((3-methylbenzyl)thio)benzo[g]quinazolin-4(3H)-one] | 30.7 ± 3.1 | 30.7 | 11.2 ± 0.9 | 11.2 | 186 to 188 | – |
| CCn1c(SCc2cccc(OC)c2)nc2cc3ccccc3cc2c1=O [Compound 13, 3-Ethyl-2-((3-methoxybenzyl)thio)benzo[g]quinazolin-4(3H)-one] | 27.5 ± 2.1 | 27.5 | 10.1 ± 1.1 | 10.1 | – | Cell Cycle Distribution %G0/G1 (HepG2 cells [5]): 38.22%; Cell Cycle Distribution %G2/M (HepG2 cells [5]): 6.52%; Cell Cycle Distribution %S (HepG2 cells [5]): 55.3% and 55.26%; Cell Cycle Distribution %G2/M (MCF-7 cells [3]): 4.36%; Cell Cycle Distribution %S (MCF-7 cells [3]): 33.25%; Apoptosis Early (HepG2 cells [6]): 2.82%; Apoptosis Late (HepG2 cells [6]): 18.56%; Apoptosis Total (HepG2 cells [6]): 21.38%; Necrosis (HepG2 cells [6]): 5.74%; Apoptosis Early (MCF-7 cells [4]): 7.28%; Apoptosis Late (MCF-7 cells [4]): 14.94%; Apoptosis Total (MCF-7 cells [4]): 22.22%; Necrosis (MCF-7 cells [4]): 15% and 15.31%; Fold Relative to Sorafenib (VEGFR-2 (KDR)): 1.5 fold; IC50 (VEGFR-2 (KDR)): 46.6 ± 2.8 nM |
| CCn1c(SCCN2CCCCC2)nc2cc3ccccc3cc2c1=O [Compound 14, 3-Ethyl-2-((2-(piperidin-1-yl)ethyl)thio)benzo[g]quinazolin-4(3H)-one] | 27.7 ± 2.5 | 27.7 | 9.6 ± 0.5 | 9.6 | 190 to 192 | Cell Cycle Distribution %G0/G1 (HepG2 cells [5]): 38.66%; Cell Cycle Distribution %G2/M (HepG2 cells [5]): 9.03%; Cell Cycle Distribution %S (HepG2 cells [5]): 52.3% and 52.31%; Cell Cycle Distribution %G0/G1 (MCF-7 cells [3]): 66.24%; Cell Cycle Distribution %G2/M (MCF-7 cells [3]): 6.58%; Cell Cycle Distribution %S (MCF-7 cells [3]): 27.18%; Apoptosis Early (HepG2 cells [6]): 2.97%; Apoptosis Late (HepG2 cells [6]): 13.42%; Apoptosis Total (HepG2 cells [6]): 16.39%; Necrosis (HepG2 cells [6]): 6.33%; Apoptosis Early (MCF-7 cells [4]): 5.08%; Apoptosis Late (MCF-7 cells [4]): 25.68%; Apoptosis Total (MCF-7 cells [4]): 30.76%; Necrosis (MCF-7 cells [4]): 11.75%; Fold Relative to Sorafenib (VEGFR-2 (KDR)): 2.0 fold; IC50 (VEGFR-2 (KDR)): 63 ± 3.9 nM |
| CCn1c(SCCCN2C(=O)c3ccccc3C2=O)nc2cc3ccccc3cc2c1=O [Compound 15, 2-(3-((3-Ethyl-4-oxo-3,4-dihydrobenzo[g]quinazolin-2-yl)thio)propyl)isoindoline-1,3-dione] | 26 ± 2.5 | 28 | 9.4 ± 0.7 | 9.4 | – | Cell Cycle Distribution %G0/G1 (HepG2 cells [5]): 31.15%; Cell Cycle Distribution %G2/M (HepG2 cells [5]): 39.2% and 39.24%; Cell Cycle Distribution %S (HepG2 cells [5]): 29.61%; Cell Cycle Distribution %G0/G1 (MCF-7 cells [3]): 43.25%; Cell Cycle Distribution %G2/M (MCF-7 cells [3]): 28.0% and 28.03%; Cell Cycle Distribution %S (MCF-7 cells [3]): 28.72%; Apoptosis Early (HepG2 cells [6]): 3.44%; Apoptosis Late (HepG2 cells [6]): 14.4%; Apoptosis Total (HepG2 cells [6]): 17.84%; Necrosis (HepG2 cells [6]): 6.27%; Apoptosis Early (MCF-7 cells [4]): 5.57%; Apoptosis Late (MCF-7 cells [4]): 19.73%; Apoptosis Total (MCF-7 cells [4]): 25.3%; Necrosis (MCF-7 cells [4]): 8.14%; Fold Relative to Sorafenib (VEGFR-2 (KDR)): 1.4 fold; IC50 (VEGFR-2 (KDR)): 44.4 ± 2.6 nM |
| Cn1c(NN)nc2cc3ccccc3cc2c1=O [Compound 16] | 28.9 ± 2.3 | 28.9 | 10.4 ± 1.1 | 10.4 | – | – |
| CCn1c(NN)nc2cc3ccccc3cc2c1=O [Compound 17] | 29.8 ± 2.1 | 29.8 | 10.1 ± 0.7 | 10.1 | – | – |
| COc1cccc2c1C(=O)c1c(O)c3c(c(O)c1C2=O)C[C@@](O)(C(=O)CO)C[C@@H]3O[C@H]1C[C@H](N)[C@H](O)[C@H](C)O1 [Doxorubicin, reference compound] | 28.5 ± 1.9 | – | 10.3 ± 0.8 | – | – | – |
